Reference: patent US5591828A, “Bispecific and oligospecific mono-and oligovalent receptors, the preparation and use thereof” (Behringwerke Aktiengesellschaft, priority 1989, dated 1997)

Legend:
Test in all cases: Quantitative inhibition ELISA for MAbs by DTPA or EDTA complexes
Assay type in all cases: binding, mouse (Balb/c)
[1] = target: MAb 2050/531 (anti-DTPA/EDTA monoclonal antibody); conditions: solid phase Y-benzyl-DTPA-HSA, preincubation with competitor at RT for 30'
Method: (§1) Isothiocyanatobenzyl-DTPA (formula 2) was covalently coupled as hapten onto human serum albumin (HSA as carrier) with a degree of derivatization of 19 benzyl-DTPA molecules per HSA molecule by the method described in (N. W. Brechbiel et al., Inorganic Chemistry25, (1986) 2772-2781). 20 μg of this hapten-carrier complex, into which cold Y had been complexed, were injected s.c. on day 0 with Freund's adjuvant, on day 7 and 14 with incomplete Freund's adjuvant and on day 21 with PBS into Balb/c mice. On day 24, the spleens of the mice with the highest anti-DTPA antibody titers were fused with the SP2/0-Ag14 myeloma cell line (Shulman et al., Nature 276, (1978) 269). The resulting hybridomas were tested in a DTPA-specific ELISA for the production of high-affinity MAbs against DTPA and EDTA. The ELISA comprised a solid phase which was loaded with a solution containing HSA-benzyl-DTPA-Y. The supernatant containing the MAb to be tested was preincubated with free chelate or its metal ion complexes, and its binding to the specific solid phase was measured. An enzyme amplification system which is coupled to an anti-mouse immunoglobulin antibody was used for this purpose. The details of these methods are described in Annex 1a and 1b.
(§2) Quantitative inhibition ELISA for MAbs by DTPA or EDTA complexes
(§3) 1) 50 μl of Y-benzyl-DTPA-HSA 19 conjugate with a concentration of 1 μg of conjugate per ml of PBS, pH 7.2, are pipetted into each well and incubated at room temperature (RT) overnight.
(§4) 5) Preincubation of the diluted hybridoma supernatant with the competitor is carried out during the blocking (see Annex 1b).
(§5) 6) 50 μl of the appropriately prediluted and preincubated hybridoma supernatants to be tested are applied to each well and incubated at RT for 30 min.
(§6) 15) The extinctions are measured at 492 nm in a […]® […]. 50 μl of NADP with 50 μl of solution and 1200 μl of 0.1N H2 SO4 are employed as blank.
(§7) Preincubation of the hybridoma supernatant with the competitor
(§8) On the basis of the ELISA concentration determination, the hybridoma supernatants are diluted to 1.25 μg/ml in PBS without Ca^++ and Mg^++.
(§9) The hybridoma supernatant is incubated with 100,000-fold, 50,000-fold, 10,000-fold, 5,000-fold, 1,000-fold and 100-fold excess of competitor at RT for 30'. 50 μl of this are pipetted into the ELISA (see Annex 1a, no. 6).
(§10) The complexing constant of DTPA or EDTA to the metal ions depicted in Table I is extremely high so that complete saturation has to be expected on equimolar mixing of DTPA or EDTA with these metal ions. For this reason, the corresponding metal ions were incubated in a 3-fold molar excess with the DTPA or EDTA. As an example, 170 μl of a 10 mM cadmium sulfate solution in double-distilled water (see Annex 1d) were incubated with 30 μl of a 0.028 molar DTPA stock solution in double-distilled water at RT for 5'. Mixing 10 μl of this competitor solution with the hybridoma supernatant leads to a 100,000-fold excess of competitor over the MAb contained in the hybridoma supernatant. Lower competitor to MAb ratios were achieved by diluting the competitor solution in the particular salt ion solution appropriately for the desired molar excess (see Annex 1b).
(§11) Quantitative assay of inhibition of MAb by DTPA and EDTA
(§12) Molar excess of competitor which leads to 50% inhibition of the binding to the solid-phase antigen.

[2] = target: MAb 2050/532 (anti-DTPA/EDTA monoclonal antibody); conditions: solid phase Y-benzyl-DTPA-HSA, preincubation with competitor at RT for 30'
Method: as §1, §2, §3, §4, §5, §6, §7, §8, §9, §10, §11, §12

[3] = target: MAb 2050/534 (anti-DTPA/EDTA monoclonal antibody); conditions: solid phase Y-benzyl-DTPA-HSA, preincubation with competitor at RT for 30'
Method: as §1, §2, §3, §4, §5, §6, §7, §8, §9, §10, §11, §12

[4] = target: MAb 2050/535 (anti-DTPA/EDTA monoclonal antibody); conditions: solid phase Y-benzyl-DTPA-HSA, preincubation with competitor at RT for 30'
Method: as §1, §2, §3, §4, §5, §6, §7, §8, §9, §10, §11, §12

[5] = target: MAb BW 2050/174 (anti-DTPA/EDTA monoclonal antibody); conditions: MAb 2050/174; solid phase Y-benzyl-DTPA-HSA; preincubation with competitor at RT for 30'
Method: as §1, §2, §3, §4, §5, §6, §7, §8, §9, §10, §11, §12

| Structure (SMILES) | Molar excess of competitor which leads to 50% inhibition of the binding to the solid-phase antigen [1] | Molar excess of competitor which leads to 50% inhibition of the binding to the solid-phase antigen [2] | Molar excess of competitor which leads to 50% inhibition of the binding to the solid-phase antigen [3] | Molar excess of competitor which leads to 50% inhibition of the binding to the solid-phase antigen [4] | Molar excess of competitor which leads to 50% inhibition of the binding to the solid-phase antigen [5] |
| --- | --- | --- | --- | --- | --- |
| NCCN [1,2-Diaminoethane, 1,2-diaminoethane] | > 10^5 molar excess | > 10^5 molar excess | > 10^5 molar excess | > 10^5 molar excess | > 10^5 molar excess |
| O=C(O)CN(CCN(CC(=O)O)CC(=O)O)CCN(CC(=O)O)CC(=O)O [DTPA, diethylenetriaminepentaacetate] | 10^3 molar excess | 10^3 molar excess | 10^3 molar excess | 10^3 molar excess | 10^3 molar excess |
| O=C([O-])CN(CCN(CC(=O)[O-])CC(=O)[O-])CCN(CC(=O)[O-])CC(=O)[O-].[Y+3] [DTPA-Y] | 5 × 10^4 molar excess | 5 × 10^4 molar excess | 5 × 10^4 molar excess | 10^4 molar excess | 10^4 molar excess |
| O=C([O-])CN(CCN(CCN(CC(=O)O)CC(=O)O)CC(=O)O)CC(=O)[O-].[Zn+2] [DTPA-Zn] | 5 × 10^3 molar excess | 5 × 10^3 molar excess | 5 × 10^3 molar excess | 10^3 molar excess | 5 × 10^3 molar excess |
| O=C([O-])CN(CCN(CC(=O)[O-])CC(=O)[O-])CC(=O)[O-].[Cu+2] [EDTA-Cu] | 10^2 molar excess | 5 × 10^3 molar excess | 10^3 molar excess | 10^2 molar excess | 10^3 molar excess |
| O=C([O-])CN(CCN(CC(=O)O)CC(=O)O)CC(=O)[O-].[Zn+2] [EDTA-Zn] | 10^3 molar excess | 10^3 molar excess | 10^3 molar excess | 10^2 molar excess | 10^3 molar excess |
| O=C(O)/C=C(\CC(=O)O)C(=O)O [Trans-aconitic acid, transaconitic acid] | > 10^5 molar excess | > 10^5 molar excess | > 10^5 molar excess | > 10^5 molar excess | > 10^5 molar excess |
